Reference: patent US20150218173A1, “SUBSTITUTED INDAZOL-PYRROLOPYRIMIDINES USEFUL IN THE TREATMENT OF HYPERFOLIFERATIVE DISORDERS” (BAYER PHARMA AKTIENGESELLSCHAFT, priority 2012, published 2015)

Molecular target: T1, human full-length MKNK1 (Homo sapiens, UniProt Q9BUB5, T385D)
T1 construct: GST (N); purchased Carna Biosciences 02-145; host or cells: insect cells (baculovirus expression system)
Assay: MKNK1 kinase high ATP assay (TR-FRET)
Assay type: biochemical
Conditions: high ATP (2 mM final), 15 min preincubation with enzyme
Experimental: MKNK1-inhibitory activity at high ATP of compounds of the present invention after their preincubation with MKNK1 was quantified employing the TR-FRET-based MKNK1 high ATP assay as described in the following paragraphs.
A recombinant fusion protein of Glutathione-S-Transferase (GST, N-terminally) and human full-length MKNK1 (amino acids 1-424 and T344D of accession number BAA 19885.1), expressed in insect cells using baculovirus expression system and purified via glutathione sepharose affinity chromatography, was purchased from Carna Biosciences (product no 02-145) and used as enzyme. As substrate for the kinase reaction the biotinylated peptide biotin-Ahx-IKKRKLTRRKSLKG (C-terminus in amide form) was used, which can be purchased e.g. from the company Biosyntan (Berlin-Buch, Germany).
For the assay 50 nL of a 100 fold concentrated solution of the test compound in DMSO was pipetted into a black low volume 384 well microtiter plate (Greiner Bio-One, Frickenhausen, Germany), 2 μL of a solution of MKNK1 in aqueous assay buffer [50 mM HEPES pH 7.5, 5 mM MgCl2, 1.0 mM dithiothreitol, 0.005% (v/v) Nonidet-P40 (Sigma)] was added and the mixture was incubated for 15 min at 22° C. to allow pre-binding of the test compounds to the enzyme before the start of the kinase reaction. Then the kinase reaction was started by the addition of 3 μL of a solution of adenosine-tri-phosphate (ATP, 3.3 mM=>final conc. in the 5 μL assay volume is 2 mM) and substrate (0.1 μM=>final conc. in the 5 μL assay volume is 0.06 μM) in assay buffer and the resulting mixture was incubated for a reaction time of 30 min at 22° C. The concentration of MKNK1 was adjusted depending of the activity of the enzyme lot and was chosen appropriate to have the assay in the linear range, typical concentrations were in the range of 0.003 μg/mL. The reaction was stopped by the addition of 5 μL of a solution of TR-FRET detection reagents (5 nM streptavidine-XL665 [Cisbio Bioassays, Codolet, France] and 1 nM anti-ribosomal protein S6 (pSer236)-antibody from Invitrogen [#44921G] and 1 nM LANCE EU-W1024 labeled ProteinG [Perkin-Elmer, product no. AD0071]) in an aqueous EDTA-solution (100 mM EDTA, 0.1% (w/v) bovine serum albumin in 50 mM HEPES pH 7.5).
The resulting mixture was incubated for 1 h at 22° C. to allow the formation of complex between the phosphorylated biotinylated peptide and the detection reagents. Subsequently the amount of phosphorylated substrate was evaluated by measurement of the resonance energy transfer from the Eu-chelate to the streptavidine-XL. Therefore, the fluorescence emissions at 620 nm and 665 nm after excitation at 350 nm were measured in a TR-FRET reader, e.g. a Rubystar (BMG Labtechnologies, Offenburg, Germany) or a Viewlux (Perkin-Elmer). The ratio of the emissions at 665 nm and at […] was taken as the measure for the amount of phosphorylated substrate. The data were normalised (enzyme reaction without inhibitor=0% inhibition, all other assay components but no enzyme=100% inhibition).

T1 sequence (Q9BUB5 1-424 isoform Q9BUB5-2 T344D): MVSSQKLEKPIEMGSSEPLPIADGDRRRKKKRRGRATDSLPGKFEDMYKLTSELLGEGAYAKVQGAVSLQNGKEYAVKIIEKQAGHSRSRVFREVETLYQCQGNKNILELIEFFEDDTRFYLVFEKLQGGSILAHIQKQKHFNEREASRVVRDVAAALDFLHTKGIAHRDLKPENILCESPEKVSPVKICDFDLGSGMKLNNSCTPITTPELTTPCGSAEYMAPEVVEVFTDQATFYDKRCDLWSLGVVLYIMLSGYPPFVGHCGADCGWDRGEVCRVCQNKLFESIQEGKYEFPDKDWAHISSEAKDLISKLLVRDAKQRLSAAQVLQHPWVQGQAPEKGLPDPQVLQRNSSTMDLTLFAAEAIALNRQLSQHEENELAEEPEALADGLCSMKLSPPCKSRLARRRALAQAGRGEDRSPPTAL

IC50 [nM] | Compound
58 | CCc1[nH]c2ncnc(Nc3ccc4[nH]ncc4c3)c2c1C [Example 1, 6-Ethyl-N-(1H-indazol-5-yl)-5-methyl-7H-pyrrolo[2,3-d]pyrimidin-4-amine]
10 | Brc1c[nH]c2ncnc(Nc3ccc4[nH]ncc4c3)c12 [Example 2, 5-Bromo-N-(1H-indazol-5-yl)-7H-pyrrolo[2,3-d]pyrimidin-4-amine]
25 | CCOC(=O)c1cc2c(Nc3ccc4[nH]ncc4c3)ncnc2[nH]1 [Example 4, Ethyl 4-(1H-indazol-5-ylamino)-7H-pyrrolo[2,3-d]pyrimidine-6-carboxylate]
11 | CS(=O)(=O)c1cc2c(Nc3ccc4[nH]ncc4c3)ncnc2[nH]1 [Example 5, N-(1H-Indazol-5-yl)-6-(methylsulfonyl)-7H-pyrrolo[2,3-d]pyrimidin-4-amine]
31 | Cc1cc2c(Nc3ccc4[nH]ncc4c3)ncnc2[nH]1 [Example 7, N-(1H-Indazol-5-yl)-6-methyl-7H-pyrrolo[2,3-d]pyrimidin-4-amine]
4 | C=C(C)c1cc2c(Nc3ccc4[nH]ncc4c3)ncnc2[nH]1 [Example 8, N-(1H-indazol-5-yl)-6-(prop-1-en-2-yl)-7H-pyrrolo[2,3-d]pyrimidin-4-amine]
7 | C=Cc1cc2c(Nc3ccc4[nH]ncc4c3)ncnc2[nH]1 [Example 9, 6-Ethenyl-N-(1H-indazol-5-yl)-7H-pyrrolo[2,3-d]pyrimidin-4-amine]
6 | C(=C\c1cc2c(Nc3ccc4[nH]ncc4c3)ncnc2[nH]1)/c1ccccc1 [Example 10, N-(1H-Indazol-5-yl)-6-[(E)-2-phenylethenyl]-7H-pyrrolo[2,3-d]pyrimidin-4-amine]
16 | Fc1ccc(-c2c[nH]c3ncnc(Nc4ccc5[nH]ncc5c4)c23)cc1 [Example 12, 5-(4-Fluorophenyl)-N-(1H-indazol-5-yl)-7H-pyrrolo[2,3-d]pyrimidin-4-amine]
9 | c1cncc(-c2c[nH]c3ncnc(Nc4ccc5[nH]ncc5c4)c23)c1 [Example 13, N-(1H-Indazol-5-yl)-5-(pyridin-3-yl)-7H-pyrrolo[2,3-d]pyrimidin-4-amine]
6 | c1cc(-c2c[nH]c3ncnc(Nc4ccc5[nH]ncc5c4)c23)ccn1 [Example 14, N-(1H-Indazol-5-yl)-5-(pyridin-4-yl)-7H-pyrrolo[2,3-d]pyrimidin-4-amine]
16 | c1ccc(-c2c[nH]c3ncnc(Nc4ccc5[nH]ncc5c4)c23)cc1 [Example 15, N-(1H-Indazol-5-yl)-5-phenyl-7H-pyrrolo[2,3-d]pyrimidin-4-amine]
2 | C1=C(c2cc3c(Nc4ccc5[nH]ncc5c4)ncnc3[nH]2)CCOC1 [Example 16, 6-(3,6-Dihydro-2H-pyran-4-yl)-N-(1H-indazol-5-yl)-7H-pyrrolo[2,3-d]pyrimidin-4-amine]
12 | C1=C(c2c[nH]c3ncnc(Nc4ccc5[nH]ncc5c4)c23)CCOC1 [Example 17, 5-(3,6-Dihydro-2H-pyran-4-yl)-N-(1H-indazol-5-yl)-7H-pyrrolo[2,3-d]pyrimidin-4-amine]
22 | Cc1c[nH]c2ncnc(Nc3ccc4[nH]ncc4c3)c12 [Example 18, N-(1H-Indazol-5-yl)-5-methyl-7H-pyrrolo[2,3-d]pyrimidin-4-amine]
39 | CC(C)c1cc2c(Nc3ccc4[nH]ncc4c3)ncnc2[nH]1 [Example 19, N-(1H-Indazol-5-yl)-6-(propan-2-yl)-7H-pyrrolo[2,3-d]pyrimidin-4-amine]
9 | O=C(NCCO)c1cc2c(Nc3ccc4[nH]ncc4c3)ncnc2[nH]1 [Example 20, N-(2-Hydroxyethyl)-4-(1H-indazol-5-ylamino)-7H-pyrrolo[2,3-d]pyrimidine-6-carboxamide]
8 | O=C(c1cc2c(Nc3ccc4[nH]ncc4c3)ncnc2[nH]1)N1CCCC1 [Example 21, [4-(1H-Indazol-5-ylamino)-7H-pyrrolo[2,3-d]pyrimidin-6-yl](pyrrolidin-1-yl)methanone]

IC50 [nM] | Compound
5 | CCCCNC(=O)c1cc2c(Nc3ccc4[nH]ncc4c3)ncnc2[nH]1 [Example 22, N-Butyl-4-(1H-indazol-5-ylamino)-7H-pyrrolo[2,3-d]pyrimidine-6-carboxamide]
9 | CN1CCN(C(=O)c2cc3c(Nc4ccc5[nH]ncc5c4)ncnc3[nH]2)CC1 [Example 23, [4-(1H-Indazol-5-ylamino)-7H-pyrrolo[2,3-d]pyrimidin-6-yl](4-methylpiperazin-1-yl)methanone]
29 | c1nc(Nc2ccc3[nH]ncc3c2)c2cc(C3CCOCC3)[nH]c2n1 [Example 24, N-(1H-Indazol-5-yl)-6-(tetrahydro-2H-pyran-4-yl)-7H-pyrrolo[2,3-d]pyrimidin-4-amine]
8 | O=C(NC1CCOCC1)c1cc2c(Nc3ccc4[nH]ncc4c3)ncnc2[nH]1 [Example 25, 4-(1H-Indazol-5-ylamino)-N-(tetrahydro-2H-pyran-4-yl)-7H-pyrrolo[2,3-d]pyrimidine-6-carboxamide]
80 | c1ccc(CCc2cc3c(Nc4ccc5[nH]ncc5c4)ncnc3[nH]2)cc1 [Example 26, N-(1H-Indazol-5-yl)-6-(2-phenylethyl)-7H-pyrrolo[2,3-d]pyrimidin-4-amine]
5 | CN(C)CCCNC(=O)c1cc2c(Nc3ccc4[nH]ncc4c3)ncnc2[nH]1 [Example 27, N-[3-(Dimethylamino)propyl]-4-(1H-indazol-5-ylamino)-7H-pyrrolo[2,3-d]pyrimidine-6-carboxamide]
32 | Clc1cc2c(Nc3ccc4[nH]ncc4c3)ncnc2[nH]1 [Example 28, 6-Chloro-N-(1H-indazol-5-yl)-7H-pyrrolo[2,3-d]pyrimidin-4-amine]
13 | CCOC(=O)c1[nH]c2ncnc(Nc3ccc4[nH]ncc4c3)c2c1C [Example 29, Ethyl 4-(1H-indazol-5-ylamino)-5-methyl-7H-pyrrolo[2,3-d]pyrimidine-6-carboxylate]
3 | CCOC(=O)c1[nH]c2ncnc(Nc3ccc4[nH]ncc4c3)c2c1Br [Example 30, Ethyl 5-bromo-4-(1H-indazol-5-ylamino)-7H-pyrrolo[2,3-d]pyrimidine-6-carboxylate]
5 | O=C(O)c1[nH]c2ncnc(Nc3ccc4[nH]ncc4c3)c2c1Br [Example 31, 5-Bromo-4-(1H-indazol-5-ylamino)-7H-pyrrolo[2,3-d]pyrimidine-6-carboxylic acid]
18 | Cc1c(C(=O)O)[nH]c2ncnc(Nc3ccc4[nH]ncc4c3)c12 [Example 32, 4-(1H-Indazol-5-ylamino)-5-methyl-7H-pyrrolo[2,3-d]pyrimidine-6-carboxylic acid]
13 | CCCc1[nH]c2ncnc(Nc3ccc4[nH]ncc4c3)c2c1CC [Example 34, 5-Ethyl-N-(1H-indazol-5-yl)-6-propyl-7H-pyrrolo[2,3-d]pyrimidin-4-amine]
37 | FC(F)(F)c1c[nH]c2ncnc(Nc3ccc4[nH]ncc4c3)c12 [Example 35, N-(1H-Indazol-5-yl)-5-(trifluoromethyl)-7H-pyrrolo[2,3-d]pyrimidin-4-amine]
1 | O=S(=O)(c1ccccc1)c1cc2c(Nc3ccc4[nH]ncc4c3)ncnc2[nH]1 [Example 36, N-(1H-Indazol-5-yl)-6-(phenylsulfonyl)-7H-pyrrolo[2,3-d]pyrimidin-4-amine]
2 | Cc1ccc(S(=O)(=O)c2cc3c(Nc4ccc5[nH]ncc5c4)ncnc3[nH]2)cc1 [Example 37, N-(1H-Indazol-5-yl)-6-[(4-methylphenyl)sulfonyl]-7H-pyrrolo[2,3-d]pyrimidin-4-amine]
1 | O=S(=O)(c1ccc(Cl)cc1)c1cc2c(Nc3ccc4[nH]ncc4c3)ncnc2[nH]1 [Example 38, 6-[(4-Chlorophenyl)sulfonyl]-N-(1H-indazol-5-yl)-7H-pyrrolo[2,3-d]pyrimidin-4-amine]
21 | CC(C)Cc1[nH]c2ncnc(Nc3ccc4[nH]ncc4c3)c2c1C(C)C [Example 39, N-(1H-Indazol-5-yl)-6-(2-methylpropyl)-5-(propan-2-yl)-7H-pyrrolo[2,3-d]pyrimidin-4-amine]
